Data on 34 compounds can be found in patent US20240398784A1, “C-LINKED ISOQUINOLINE AMIDES AS LRRK2 INHIBITORS, PHARMACEUTICAL COMPOSITIONS, AND USES THEREOF” (Merck Sharp & Dohme LLC, priority 2021, published 2024).

This assay deals with LRRK2 G2019S (Homo sapiens, UniProt Q5S007, G2019S). Description: LRRK2 G2019S Km ATP LanthaScreen assay. The conditions noted are these: for IC50: read-out: LRRK2 pIC50 (converted). It is filed as biochemical. On the procedure:
Unless otherwise noted, all reactions are magnetically stirred. Unless otherwise noted, when diethyl ether is used in the experiments described below, it is Fisher ACS certified material and is stabilized with BHT. Unless otherwise noted, “concentrated” and/or “solvent removed under reduced pressure” means evaporating the solvent from a solution or mixture using a rotary evaporator or vacuum pump. Unless otherwise noted, flash chromatography is carried out on a Teledyne Isco (Lincoln, NE), Analogix (Burlington, WI), or Biotage (Stockholm, SWE) automated chromatography system using a commercially available cartridge as the column. Columns may be purchased from Teledyne Isco, Analogix, Biotage, Varian (Palo Alto, CA), or Supelco (Bellefonte, PA) and are usually filled with silica gel as the stationary phase. Reverse phase prep-HPLC conditions, where used, can be found at the end of each experimental section. Aqueous solutions were concentrated on a Genevac (Ipswich, ENG) or by freeze-drying/lyophilization.

LRRK2 G2019S, sequence (Q5S007 whole entry G2019S): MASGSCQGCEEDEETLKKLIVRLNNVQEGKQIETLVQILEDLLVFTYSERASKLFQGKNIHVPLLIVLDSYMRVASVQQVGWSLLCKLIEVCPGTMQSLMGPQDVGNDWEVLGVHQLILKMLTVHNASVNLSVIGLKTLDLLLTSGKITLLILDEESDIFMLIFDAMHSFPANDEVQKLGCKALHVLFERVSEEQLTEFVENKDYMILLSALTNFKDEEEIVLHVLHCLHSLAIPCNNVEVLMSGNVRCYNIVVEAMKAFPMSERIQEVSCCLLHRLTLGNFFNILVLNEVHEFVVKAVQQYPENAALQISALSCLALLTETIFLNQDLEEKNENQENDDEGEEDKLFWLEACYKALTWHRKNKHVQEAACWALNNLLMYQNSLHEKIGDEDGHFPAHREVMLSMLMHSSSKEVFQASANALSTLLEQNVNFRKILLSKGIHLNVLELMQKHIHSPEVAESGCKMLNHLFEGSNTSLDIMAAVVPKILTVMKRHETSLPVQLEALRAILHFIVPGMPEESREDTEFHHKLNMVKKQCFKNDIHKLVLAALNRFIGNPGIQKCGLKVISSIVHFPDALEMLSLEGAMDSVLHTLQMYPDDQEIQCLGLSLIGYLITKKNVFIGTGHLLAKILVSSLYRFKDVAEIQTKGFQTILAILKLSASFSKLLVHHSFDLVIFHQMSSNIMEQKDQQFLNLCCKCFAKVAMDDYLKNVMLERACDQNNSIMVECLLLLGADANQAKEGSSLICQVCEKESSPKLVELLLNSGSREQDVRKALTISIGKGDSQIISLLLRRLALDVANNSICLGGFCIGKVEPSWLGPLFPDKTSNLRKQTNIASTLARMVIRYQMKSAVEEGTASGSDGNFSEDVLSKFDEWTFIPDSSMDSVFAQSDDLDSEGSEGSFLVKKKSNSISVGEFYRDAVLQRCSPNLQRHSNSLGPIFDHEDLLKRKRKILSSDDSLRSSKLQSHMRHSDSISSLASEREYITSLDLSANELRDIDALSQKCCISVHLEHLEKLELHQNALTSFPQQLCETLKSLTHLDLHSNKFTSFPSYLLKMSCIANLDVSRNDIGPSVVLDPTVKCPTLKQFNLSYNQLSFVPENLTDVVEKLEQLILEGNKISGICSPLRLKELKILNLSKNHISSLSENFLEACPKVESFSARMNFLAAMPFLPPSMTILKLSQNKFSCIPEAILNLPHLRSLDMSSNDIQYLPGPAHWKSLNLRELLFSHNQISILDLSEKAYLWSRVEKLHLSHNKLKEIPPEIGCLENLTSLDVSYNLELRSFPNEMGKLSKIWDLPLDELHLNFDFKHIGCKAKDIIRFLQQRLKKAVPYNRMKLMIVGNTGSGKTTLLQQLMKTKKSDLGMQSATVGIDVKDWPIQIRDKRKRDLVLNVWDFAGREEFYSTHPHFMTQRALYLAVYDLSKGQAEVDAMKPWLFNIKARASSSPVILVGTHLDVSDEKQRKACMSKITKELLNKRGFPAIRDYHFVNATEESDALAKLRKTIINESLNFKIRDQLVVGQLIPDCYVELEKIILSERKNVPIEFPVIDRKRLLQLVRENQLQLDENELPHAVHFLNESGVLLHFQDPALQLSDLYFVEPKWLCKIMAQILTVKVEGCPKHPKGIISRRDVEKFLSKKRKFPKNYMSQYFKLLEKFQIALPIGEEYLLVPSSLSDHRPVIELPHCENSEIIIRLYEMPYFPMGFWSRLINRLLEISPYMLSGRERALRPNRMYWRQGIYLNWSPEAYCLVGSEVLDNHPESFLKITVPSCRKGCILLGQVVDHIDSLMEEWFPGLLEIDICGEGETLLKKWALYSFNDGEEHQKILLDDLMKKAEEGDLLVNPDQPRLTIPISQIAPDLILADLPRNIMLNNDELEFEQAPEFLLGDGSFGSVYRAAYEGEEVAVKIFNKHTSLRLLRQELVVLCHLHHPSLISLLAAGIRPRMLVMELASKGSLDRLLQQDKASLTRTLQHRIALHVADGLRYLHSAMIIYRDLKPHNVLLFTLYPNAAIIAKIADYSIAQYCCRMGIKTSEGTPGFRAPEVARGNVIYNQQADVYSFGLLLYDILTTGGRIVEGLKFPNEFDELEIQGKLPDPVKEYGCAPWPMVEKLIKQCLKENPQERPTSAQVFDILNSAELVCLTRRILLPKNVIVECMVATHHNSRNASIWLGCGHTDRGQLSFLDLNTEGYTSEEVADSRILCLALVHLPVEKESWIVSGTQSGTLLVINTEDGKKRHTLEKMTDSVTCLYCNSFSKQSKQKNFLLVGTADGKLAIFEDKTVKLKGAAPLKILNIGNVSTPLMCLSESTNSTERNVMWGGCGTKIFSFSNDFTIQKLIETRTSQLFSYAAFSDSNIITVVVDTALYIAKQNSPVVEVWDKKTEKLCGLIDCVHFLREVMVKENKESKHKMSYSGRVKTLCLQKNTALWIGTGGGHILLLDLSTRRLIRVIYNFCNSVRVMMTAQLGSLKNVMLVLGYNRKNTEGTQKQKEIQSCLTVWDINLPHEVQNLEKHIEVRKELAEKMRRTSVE

As to `CC1(C)CCC(C(=O)Nc2cc3cc(C4CCC(N5CCC(F)C5)CC4)c(Cl)cc3cn2)CO1` (single isomer, unassigned) [Ex-5.22, N-(7-chloro-6-(4-(3-fluoropyrrolidin-1-yl)cyclohexyl)isoquinolin-3-yl)-6,6-dimethyltetrahydro-2H-pyran-3-carboxamide], the IC50 was 6.17 nM.
Consider `N#CC1(c2ccc3cnc(NC(=O)C4CC4)cc3c2)CC12CC2` (single isomer, unassigned) [Ex-18.1, N-(6-(1-cyanospiro[2.2]pentan-1-yl)isoquinolin-3-yl)cyclopropanecarboxamide], for which the IC50 was 2.29 nM.
Regarding `O=C(Nc1cc2cc(C3CCN(C4COCC4O)CC3)c(Cl)cc2cn1)C1CC12CCOC2` (single isomer, unassigned) [Ex-8.5, N-(7-chloro-6-(1-(4-hydroxytetrahydrofuran-3-yl)piperidin-4-yl)isoquinolin-3-yl)-5-oxaspiro[2.4]heptane-1-carboxamide], the IC50 is 0.1 nM.
Consider `Cn1cc(C2CC2C(=O)Nc2cc3cc(C4CCN(C5(C)COCC5O)CC4)c(Cl)cc3cn2)cn1` (stereo not shown) [Ex-2.36], for which the IC50 was 0.55 nM.
Same read-out and setting: to `COC1CC(C(=O)Nc2cc3cc(C4(C#N)CC45CC5)ccc3cn2)C1` (single isomer, unassigned) [Ex-1.3, (1R,3R or 1S,3S)-N-(6-((R or S)-1-cyanospiro[2.2]pentan-1-yl)isoquinolin-3-yl)-3-methoxycyclobutane-1-carboxamide] belongs 0.631 nM.
The same measure, in the same setting: to `O=C(Nc1cc2cc(C3CCN(C4COC4)CC3)c(Cl)cc2cn1)C1(F)CC1` [Ex-7.8, N-(7-chloro-6-(1-(oxetan-3-yl)piperidin-4-yl)isoquinolin-3-yl)-1-fluorocyclopropane-1-carboxamide] belongs 9.12 nM.
Turning to `CO[C@H]1C[C@H](C(=O)Nc2cc3cc(C4(C#N)CC45CC5)ccc3cn2)C1.O=C(O)C(F)(F)F` (stereo partly shown) [Ex-1.1], the “LRRK2 pIC50” value was determined as 8.96.
For the compound `CC1C(C(=O)Nc2cc3cc(C4CCN(C5(C)COCC5O)CC4)c(Cl)cc3cn2)C1c1ccccn1` (single isomer, unassigned) [Ex-4.52, N-(7-chloro-6-(1-(4-hydroxy-3-methyltetrahydrofuran-3-yl)piperidin-4-yl)isoquinolin-3-yl)-2-methyl-3-(pyridin-2-yl)cyclopropane-1-carboxamide], the IC50 was 15.1 nM.
On the same count and under the same terms, to `CC(C)(O)C1CC1C(=O)Nc1cc2cc(C3(C#N)CC34CC4)ccc2cn1` (stereo not shown) [Ex-2.31] belongs 0.224 nM; to `CC1(C)CCC(C(=O)Nc2cc3cc(C4CCN(C5(C)COCC5O)CC4)c(Cl)cc3cn2)CO1` (single isomer, unassigned) [Ex-4.25, N-(7-chloro-6-(1-(4-hydroxy-3-methyltetrahydrofuran-3-yl)piperidin-4-yl)isoquinolin-3-yl)-6,6-dimethyltetrahydrofuran-2H-pyran-3-carboxamide], 0.776 nM.
Still for that read-out and setting: to `CC1(C)CCC(C(=O)Nc2cc3cc(C4CCC(N5CCC(F)C5)CC4)c(Cl)cc3cn2)CO1` (single isomer, unassigned) [Ex-5.24, N-(7-chloro-6-(4-(3-fluoropyrrolidin-1-yl)cyclohexyl)isoquinolin-3-yl)-6,6-dimethyltetrahydro-2H-pyran-3-carboxamide] belongs 4270 nM.
Same read-out and setting: to `CC1(N2CCC(c3cc4cc(NC(=O)C5CCCOC5)ncc4cc3Cl)CC2)COCC1O` (stereo not shown) [Ex-2.25] belongs 0.0813 nM.
On to `CC1(N2CCC(c3cc4cc(NC(=O)C5CC5F)ncc4cc3Cl)CC2)COCC1O` (stereo not shown) [Ex-3.4], for which the IC50 is 1.55 nM.
Same read-out and setting: to `Cc1cc2cnc(NC(=O)C3CC34CCOC4)cc2cc1C1CCN(C2(C)COCC2F)CC1` (single isomer, unassigned) [Ex-15.9, N-(6-(1-(4-fluoro-3-methyltetrahydrofuran-3-yl)piperidin-4-yl)-7-methylisoquinolin-3-yl)-5-oxaspiro[2.4]heptane-1-carboxamide] belongs 2.4 nM; to `CC1(N2CCC(c3cc4cc(NC(=O)C5C6CCCOC65)ncc4cc3Cl)CC2)COCC1O` (single isomer, unassigned) [Ex-4.13, N-(7-chloro-6-(1-(4-hydroxy-3-methyltetrahydrofuran-3-yl)piperidin-4-yl)isoquinolin-3-yl)-2-oxabicyclo[4.1.0]heptane-7-carboxamide], 0.182 nM.
Same read-out and setting: to `CC1(C)CC1(C#N)c1ccc2cnc(NC(=O)C3CC3)cc2c1` (single isomer, unassigned) [Ex-18.4, (R or S)-N-(6-(1-cyano-2,2-dimethylcyclopropyl)isoquinolin-3-yl)cyclopropanecarboxamide] belongs 61.7 nM.
On the same count and under the same terms, to `CC1(N2CCC(c3cc4cc(NC(=O)C5CC5C#N)ncc4cc3Cl)CC2)COCC1O` (stereo not shown) [Ex-2.32] belongs 0.0813 nM; to `CC1(N2CCC(c3cc4cc(NC(=O)C5CC56CCOCC6)ncc4cc3Cl)CC2)COCC1F` (single isomer, unassigned) [Ex-6.24, N-(7-chloro-6-(1-(4-fluoro-3-methyltetrahydrofuran-3-yl)piperidin-4-yl)isoquinolin-3-yl)-6-oxaspiro[2.5]octane-1-carboxamide], 0.0813 nM.
Take `CC1C(C(=O)Nc2cc3cc(C4CCN(C5(C)COCC5O)CC4)c(Cl)cc3cn2)C12CCOCC2` (single isomer, unassigned) [Ex-10.6, N-(7-chloro-6-(1-(4-hydroxy-3-methyltetrahydrofuran-3-yl)piperidin-4-yl)isoquinolin-3-yl)-2-methyl-6-oxaspiro[2.5]octane-1-carboxamide]: the IC50 is 11 nM.
Still for that read-out and setting: to `Cn1ccc(C2CC2C(=O)Nc2cc3cc(C4(C#N)CC45CC5)ccc3cn2)n1` (stereo not shown) [Ex-2.72] belongs 3.31 nM; to `Cn1cc(C2CC2C(=O)Nc2cc3cc(C4CCN(C5(C)COCC5O)CC4)c(Cl)cc3cn2)cn1` (stereo not shown) [Ex-2.37], 0.0813 nM.
The same measure, in the same setting: to `C[C@@]1(N2CCC(c3cc4cc(NC(=O)c5ccn(C6CC6)n5)ncc4cc3Cl)CC2)COC[C@@H]1O` (single isomer, unassigned) [Ex-1.49, N-(7-chloro-6-(1-((3R,4R or 3S,4S)-4-hydroxy-3-methyltetrahydrofuran-3-yl)piperidin-4-yl)isoquinolin-3-yl)-1-cyclopropyl-1H-pyrazole-3-carboxamide] belongs 38.9 nM.
On to `CC1(N2CCC(c3cc4cc(NC(=O)Cc5ccncc5)ncc4cc3Cl)CC2)COCC1O` (stereo not shown) [Ex-3.8], for which the “LRRK2 pIC50” value amounted to 10.09.
For the compound `CC1(N2CCC(c3cc4cc(NC(=O)C5C6CCCC65)ncc4cc3Cl)CC2)COCC1O` (single isomer, unassigned) [Ex-1.20, N-(7-chloro-6-(1-((3R,4R or 3S,4S)-4-hydroxy-3-methyltetrahydrofuran-3-yl)piperidin-4-yl)isoquinolin-3-yl)bicyclo[3.1.0]hexane-6-carboxamide], the IC50 was 0.182 nM.
On the same count and under the same terms, to `CC1(C)C(C(=O)Nc2cc3cc(C4CCN(C5(C)COCC5O)CC4)c(Cl)cc3cn2)C1c1ccccn1` (single isomer, unassigned) [Ex-4.45, N-(7-chloro-6-(1-(4-hydroxy-3-methyltetrahydrofuran-3-yl)piperidin-4-yl)isoquinolin-3-yl)-2,2-dimethyl-3-(pyridin-2-yl)cyclopropane-1-carboxamide] belongs 7.08 nM; to `CC1(N2CCC(c3cc4cc(NC(=O)C5CC5)ncc4cc3Cl)C(F)C2)COC1` (stereo not shown) [Ex-14.3, N-(7-chloro-6-(3-fluoro-1-(3-methyloxetan-3-yl)piperidin-4-yl)isoquinolin-3-yl)cyclopropanecarboxamide], 0.589 nM.
Same read-out and setting: to `CC1(C)CC1(C#N)c1ccc2cnc(NC(=O)C3CC3)cc2c1` (single isomer, unassigned) [Ex-18.3, (R or S)-N-(6-(1-cyano-2,2-dimethylcyclopropyl)isoquinolin-3-yl)cyclopropanecarboxamide] belongs 24 nM; to `CCC1C(C(=O)Nc2cc3cc(C4CCC(N5CC(C)(F)C5)CC4)c(Cl)cc3cn2)C1c1cnn(C)c1` (single isomer, unassigned) [Ex-11.1, (1R,2R,3R) or (1R,2S,3R) or (1S,2R,3S) or (1S,2S,3S)-N-(7-chloro-6-((cis or trans)-4-(3-fluoro-3-methylazetidin-1-yl)cyclohexyl)isoquinolin-3-yl)-2-ethyl-3-(1-methyl-1H-pyrazol-4-yl)cyclopropane-1-carboxamide], 0.0813 nM.
Still for that read-out and setting: to `Cn1cc(C(=O)Nc2cc3cc(C4CCN(C5COC5)CC4)c(Cl)cc3cn2)cn1` [Ex-1.36, N-(7-chloro-6-(1-(oxetan-3-yl)piperidin-4-yl)isoquinolin-3-yl)-1-methyl-1H-pyrazole-4-carboxamide] belongs 5.89 nM; to `Cn1ncc(C2CC2C(=O)Nc2cc3cc(C4(C#N)CC45CC5)ccc3cn2)c1C(F)(F)F` (stereo not shown) [Ex-2.48], 324 nM; to `Cc1cc2cnc(NC(=O)C3CCOC(C)(C)C3)cc2cc1C1CCN(C2(C)COCC2O)CC1` (stereo not shown) [Ex-2.50], 7.41 nM.
On to `CC1(N2CCC(c3cc4cc(NC(=O)C5CC(c6ccccn6)C5)ncc4cc3Cl)CC2)COCC1O` (single isomer, unassigned) [Ex-4.76, N-(7-chloro-6-(1-(4-hydroxy-3-methyltetrahydrofuran-3-yl)piperidin-4-yl)isoquinolin-3-yl)-3-(pyridin-2-yl)cyclobutane-1-carboxamide], for which the IC50 was 41.7 nM.
Turning to `CC1(N2CCC(c3cc4cc(NC(=O)Cn5ccc(C(F)(F)F)n5)ncc4cc3Cl)CC2)COCC1O` (stereo not shown) [Ex-3.10], the IC50 is 1 nM.
Still for that read-out and setting: to `Cc1cc2cnc(NC(=O)C3C4CCOCC43)cc2cc1C1CCN(C2(C)COCC2O)CC1` (stereo not shown) [Ex-2.52] belongs 0.676 nM.
